{"source": "patent US20240398785A1", "about": "“SMALL MOLECULE DRUGS FOR THE INDUCTION OF TRAINED IMMUNITY” (THE UNIVERSITY OF CHICAGO, priority 2023, published 2024)", "key": {"BMDMs [1]": {"system": "BMDMs", "experiment": "Annexin-V staining for apoptotic cells", "assay_type": "cell-based, mouse", "conditions": "100 nM, 24 hours", "protocol": "FIGS. 9A-9E: Representative plots for Annexin V gating strategy for apoptotic cells: BMDMs were stimulated with nothing (unstained control, FIG. 9A), PBS (negative control, FIG. 9B), Camptothecin (positive control, FIG. 9C) or A1155463 (FIG. 9D); n=3, (except camptothecin n=1). Results from plots 9B-9D depicted in FIG. 9E.\nSince Bcl-xL is a known anti-apoptotic protein, a study was performed to see if inhibition with 100 nM A1155463 induced apoptosis in BMDMs. To test this, Annexin-V staining was used to gate for apoptotic cells 24 hours following stimulation with either PBS or A1155463."}, "B16.F10 tumors": {"system": "B16.F10 tumors", "experiment": "B16.F10 tumor model after A1155463 training", "assay_type": "in vivo, mouse", "protocol": "FIGS. 6A-6H: in-vivo A1155463 trained immunity (TI) assays. FIG. 6A is a schematic showing the in-vivo training schedule. Mice were dosed intraperitoneally (i.p.) with training material (PBS or A1155463 at 15 milligrams per kilogram body weight (mg/kg)) daily for six days. Mice were challenged with 5 mg lipopolysaccharide (LPS) on day 7. FIG. 6B is a graph showing the interleukin-6 (IL-6) and tumor necrosis factor-alpha (TNF-α) levels (expressed as picograms per milliliter (pg/ml) 1 hour (h) following LPS challenge with either PBS (black) or A1155463 (pink); n=5. FIG. 6C is a graph showing the percentage (%) of small peritoneal macrophages (SPMs) from the peritoneal cavity of PBS (black) or A1155463 trained (pink) mice 2 h post LPS challenge on day 7. FIG. 6D is a graph showing the IL-6 levels (pg/ml) from bone-marrow cells isolated on day 7 challenged ex-vivo with LPS from either PBS (black) or A1155463 (pink) trained mice; n=3. FIG. 6E is a schematic showing the in-vivo training schedule for B16.F10 tumor challenge. FIG. 6F is a graph showing the tumor volumes (in cubic millimeters (mm3)) of mice trained with PBS (black) or A1155463 (pink) mice; n=8. FIG. 6G is a schematic of the in-vivo training schedule for B16.F10 tumor challenge with checkpoint therapy (CPT) administered on day 14 and 17. […]"}, "RAW-Blue cells": {"system": "RAW-Blue cells", "experiment": "RAW-Blue NF-kb reporter assay", "assay_type": "cell-based", "conditions": "after 18 hours", "protocol": "FIG. 8: RAW-Blue assay: RAW-Blue cells (100,000 cells per well) were incubated with PBS (black), A1155463 (pink) or 100 ng/mL LPS (green) for 18 h.\n(§1) Bcl-xL is an anti-apoptotic protein with some role in mediating inflammatory reactions.^32,33 Most documented inducers of trained immunity elicit an initial immune response upon administration. However, A1155463 has never been reported elicit inflammatory responses in vitro. To test if A1155463 elicited an enhanced innate response on its own in vitro, supernatant from BMDMs cultured with A1155463 for 24 hours was analyzed. […] The non-immunogenicity of A1155463 was validated using an NF-kb reporter cell line. […] Taken together, this evidence supports that A1155463 is a non-immunogenic trained immunity inducing molecule."}, "mice": {"system": "mice", "experiment": "A1155463 in-vivo training, LPS challenge", "set-up": "species or system mouse", "protocol": "FIGS. 6A-6H: in-vivo A1155463 trained immunity (TI) assays. FIG. 6A is a schematic showing the in-vivo training schedule. Mice were dosed intraperitoneally (i.p.) with training material (PBS or A1155463 at 15 milligrams per kilogram body weight (mg/kg)) daily for six days. […] FIG. 6B is a graph showing the interleukin-6 (IL-6) and tumor necrosis factor-alpha (TNF-α) levels (expressed as picograms per milliliter (pg/ml) 1 hour (h) following LPS challenge with either PBS (black) or A1155463 (pink); n=5. FIG. 6C is a graph showing the percentage (%) of small peritoneal macrophages (SPMs) from the peritoneal cavity of PBS (black) or A1155463 trained (pink) mice 2 h post LPS challenge on day 7. FIG. 6D is a graph showing the IL-6 levels (pg/ml) from bone-marrow cells isolated on day 7 challenged ex-vivo with LPS from either PBS (black) or A1155463 (pink) trained mice; n=3. FIG. 6E is a schematic showing the in-vivo training schedule for B16.F10 tumor challenge. FIG. 6F is a graph showing the tumor volumes (in cubic millimeters (mm3)) of mice trained with PBS (black) or A1155463 (pink) mice; n=8. FIG. 6G is a schematic of the in-vivo training schedule for B16.F10 tumor challenge with checkpoint therapy (CPT) administered on day 14 and 17. FIG. 6H is a graph showing tumor volumes (mm^3) of mice trained with PBS (black; n=4) or A1155463 (pink; n=5).\nFIG. 10: Ruling out innate immune priming: Mice were trained with PBS or vehicle (black) or A1155463 (pink) according to schedule illustrated in FIG. 6A.\nSince A1155463 induced training effects in-vitro, its ability to induce training in mice was studied. […] The vehicle control group was also dosed similarly to account for solvent effects. To rule out the impact of innate immune priming due to the high dosage, systemic cytokines were checked for 24 hours after the last dosing on day 6. […] […].\nApart from increased systemic cytokines, recruitment of monocyte-derived small peritoneal macrophages (SPMs) is another hallmark of enhanced training. […] Central effects of trained immunity occur at the bone-marrow progenitor favoring myelopoiesis.^39 To test if A1155463 induced training effects in bone-marrow cells, cells were isolated from the bone-marrow seven days following the training schedule described in FIG. 6A. Bone-marrow cells from PBS or A1155463 trained cells were challenged with 5 ng/mL of LPS and the supernatant was analyzed 24 hours later. […]."}, "BMDMs [2]": {"system": "BMDMs", "experiment": "A1155463 immunogenicity, BMDM supernatant after 24 hours", "assay_type": "cell-based, mouse", "conditions": "no challenge", "protocol": "FIG. 7: Testing immunogenicity of A115463 on BMDMs: BMDMs (100,000 cells per well) were incubated with PBS (red), different doses of A1155463 (blue 10 uM, green 1 uM or purple 0.1 uM) or different concentrations of DMSO, reflective of the A1155463 doses for 24 h.\nas §1"}, "[3]": {"conditions": "15 mg/kg i.p. daily for 6 days, LPS 5 μg per mouse, after 1 hour"}}}
{"smiles": "CN(C)CC#Cc1ccc(OCCCc2sc(N3CCc4cccc(C(=O)Nc5nc6ccccc6s5)c4C3)nc2C(=O)O)c(F)c1", "note": "[A1155463, 2-(8-(benzo[d]thiazol-2-ylcarbamoyl)-3,4-dihydroisoquinolin-2(1H)-yl)-5-(3-(4-(3-(dimethyl-amino)prop-1-yn-1-yl)-2-fluorophenoxy)propyl)thiozole-4-carboxylic acid]", "values": [{"measurement": "percentage of apoptotic cells", "setting": "BMDMs [1]", "value": "No significant difference"}, {"measurement": "tumor growth vs untrained (vehicle) control", "setting": "B16.F10 tumors; 15 mg/kg daily for 6 days, s.c. B16.F10 24 hours after last dosing", "value": "significant decrease in tumor growth"}, {"measurement": "tumor growth with checkpoint therapy", "setting": "B16.F10 tumors; plus anti-PDL1 and anti-CTLA-4 on days 14 and 17", "value": "Significantly reduced tumor growth"}, {"measurement": "NF-kb reporter signal vs PBS-treated cells", "setting": "RAW-Blue cells", "value": "No significant difference"}, {"measurement": "systemic IL-6 or TNF-α without challenge (priming)", "setting": "mice; 15 mg/kg i.p. daily for 6 days, 24 hours after the last dosing", "value": "No systemic IL-6 or TNF-α was observed"}, {"measurement": "increase in IL-6 following LPS challenge", "setting": "mice; [3]", "value": 2.3, "unit": "fold"}, {"measurement": "increase in TNF-α following LPS challenge", "setting": "mice; [3]", "value": 1.97, "unit": "fold"}, {"measurement": "percentage of SPMs", "setting": "mice; two hours post-LPS challenge", "value": "non-significant increase"}, {"measurement": "IL-6 levels vs PBS-treated BMDMs", "setting": "BMDMs [2]", "value": "No significant difference"}]}
